Laboratory results reported in patent US11844795B2, “Combination therapy for cancer treatment” (Ipsen Biopharm Ltd., priority 2015, dated 2023).
Like-named read-outs stand apart in the source and are kept apart here.

Assays:
[1] = test system: DMS-114 small cell lung cancer cells; assay: % cell number over time, SN-38 with PARP inhibitors; type: cell-based; conditions: SN-38 at 2 nM; DMS-114 SCLC cells
PAR = conditions: Table 2B, unit inferred; cited from earlier work
[2] = test system: CFPAC-1 pancreatic cancer cells; assay: % cell number over time, SN-38 with PARP inhibitors; type: cell-based; conditions: SN-38 at 2 nM
[3] = test system: MS751 cervical cancer xenograft; assay: MS751 cervical cancer xenograft model; conditions: MM-398 5 mg/kg weekly Day 1; veliparib 50 mg/kg orally Days 4-6; FIG. 7A
[4] = test system: small cell lung cancer (SCLC), pancreatic cancer and breast cancer cell lines; assay: Growth inhibition, SN-38 with PARP inhibitors; type: cell-based; conditions: for growth inhibition of the cancer cells in combination with SN-38: 2 nM SN-38
[5] = test system: C33A cervical cancer xenograft; assay: C33A cervical cancer xenograft model; conditions: MM-398 2 mg/kg weekly Day 1; veliparib 50 mg/kg orally Days 4-6; FIG. 7B
cancer cells = assay: Active range based on XTC008
SIRT2 = SIRT2 (Homo sapiens, UniProt Q8IXJ6); conditions: cited from earlier work
PARP 1 = PARP 1 (Homo sapiens, UniProt P09874); conditions: cell-free assay; cited from earlier work
HCC1187 = assay: Cell survival (CellTiter-Glo) after SN-38 and/or PARP inhibitor; type: cell-based; conditions: Homo sapiens, HCC1187, read-out: IC50 log10 (μM) (converted)
Description: (§1) Cells were plated at 1000 cells/well and then incubated for 24 hours. […] The plates were then allowed to incubate for 72 hours period. After the 72 hour incubation period the media was removed and cell viability was determined using the CellTiter-Glo® cell viability assay (Promega, Madison Wis.) according to the product instructions.

BT549 = assay: as above; type: cell-based; conditions: for IC50: Homo sapiens
Description: as §1

SUM149PT = assay: as above; type: cell-based; conditions: for IC50: Homo sapiens
Description: as §1

BT20 = assay: as above; type: cell-based; conditions: for IC50: Homo sapiens
Description: as §1

SUM159PT = assay: as above; type: cell-based; conditions: for IC50: Homo sapiens, SUM-159-PT
Description: as §1

[6] = test system: NCI-H1048 small cell lung cancer cells; assay: % cell number over time, SN-38 with PARP inhibitors; type: cell-based; conditions: SN-38 at 2 nM; NCI-H1048 SCLC cells
tankyrase-1 = tankyrase-1 (Homo sapiens, UniProt O95271); conditions: cell-free assays; cited from earlier work
HCC1954 = assay: Cell survival (CellTiter-Glo) after SN-38 and/or PARP inhibitor; type: cell-based; conditions: HCC1954, Exp. 3, single agent
Description: as §1

HCC38 = assay: as above; type: cell-based; conditions: HCC38, Exp. 3, single agent
Description: as §1

[7] = read-out: IC50 log10 (μM) (converted)
[8] = Homo sapiens, read-out: IC50 log10 (converted)

Sequence of SIRT2 (Q8IXJ6 whole entry, species assumed): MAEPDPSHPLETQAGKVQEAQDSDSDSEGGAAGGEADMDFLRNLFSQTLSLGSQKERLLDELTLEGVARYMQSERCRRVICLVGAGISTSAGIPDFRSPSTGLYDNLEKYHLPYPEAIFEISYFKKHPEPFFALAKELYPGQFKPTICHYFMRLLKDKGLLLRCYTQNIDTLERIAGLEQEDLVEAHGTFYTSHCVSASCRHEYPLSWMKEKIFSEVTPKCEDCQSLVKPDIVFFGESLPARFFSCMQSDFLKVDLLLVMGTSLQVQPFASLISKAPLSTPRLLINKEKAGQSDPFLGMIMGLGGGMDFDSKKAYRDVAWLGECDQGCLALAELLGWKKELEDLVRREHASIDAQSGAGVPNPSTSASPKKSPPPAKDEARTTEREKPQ
Sequence of tankyrase-1 (O95271 whole entry, species assumed): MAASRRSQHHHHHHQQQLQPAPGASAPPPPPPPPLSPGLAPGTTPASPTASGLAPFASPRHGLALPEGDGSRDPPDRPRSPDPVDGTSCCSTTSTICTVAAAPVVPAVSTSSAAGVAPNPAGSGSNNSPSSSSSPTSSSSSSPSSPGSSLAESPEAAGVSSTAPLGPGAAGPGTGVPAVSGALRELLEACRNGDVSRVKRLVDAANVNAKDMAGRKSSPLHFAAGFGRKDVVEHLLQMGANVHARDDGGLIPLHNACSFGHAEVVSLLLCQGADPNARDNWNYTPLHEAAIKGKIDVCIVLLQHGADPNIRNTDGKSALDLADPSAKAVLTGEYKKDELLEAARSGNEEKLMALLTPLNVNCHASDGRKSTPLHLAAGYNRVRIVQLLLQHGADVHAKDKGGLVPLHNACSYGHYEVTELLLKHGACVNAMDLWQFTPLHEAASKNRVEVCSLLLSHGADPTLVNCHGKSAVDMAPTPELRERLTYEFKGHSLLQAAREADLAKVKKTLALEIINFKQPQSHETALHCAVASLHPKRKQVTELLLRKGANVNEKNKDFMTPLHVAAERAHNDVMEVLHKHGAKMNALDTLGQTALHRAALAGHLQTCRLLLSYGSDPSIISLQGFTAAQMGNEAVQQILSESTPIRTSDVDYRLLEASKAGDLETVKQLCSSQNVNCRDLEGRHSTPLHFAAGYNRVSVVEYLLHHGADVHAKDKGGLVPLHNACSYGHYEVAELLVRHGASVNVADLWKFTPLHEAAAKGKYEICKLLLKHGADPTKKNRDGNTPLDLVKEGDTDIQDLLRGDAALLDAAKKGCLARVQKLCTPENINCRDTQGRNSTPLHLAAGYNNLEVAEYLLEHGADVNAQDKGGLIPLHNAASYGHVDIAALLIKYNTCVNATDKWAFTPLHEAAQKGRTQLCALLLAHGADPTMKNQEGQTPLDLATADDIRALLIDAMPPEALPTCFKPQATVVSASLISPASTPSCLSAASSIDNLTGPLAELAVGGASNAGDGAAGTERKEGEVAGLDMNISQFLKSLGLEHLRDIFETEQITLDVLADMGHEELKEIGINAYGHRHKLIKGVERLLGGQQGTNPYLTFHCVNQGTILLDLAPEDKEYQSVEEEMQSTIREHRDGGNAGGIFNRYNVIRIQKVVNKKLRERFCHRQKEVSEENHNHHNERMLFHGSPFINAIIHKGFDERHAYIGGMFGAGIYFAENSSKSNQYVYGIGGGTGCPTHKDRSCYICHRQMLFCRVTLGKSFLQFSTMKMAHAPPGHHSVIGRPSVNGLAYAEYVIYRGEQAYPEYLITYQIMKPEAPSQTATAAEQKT
Sequence of PARP 1 (P09874 whole entry, species assumed): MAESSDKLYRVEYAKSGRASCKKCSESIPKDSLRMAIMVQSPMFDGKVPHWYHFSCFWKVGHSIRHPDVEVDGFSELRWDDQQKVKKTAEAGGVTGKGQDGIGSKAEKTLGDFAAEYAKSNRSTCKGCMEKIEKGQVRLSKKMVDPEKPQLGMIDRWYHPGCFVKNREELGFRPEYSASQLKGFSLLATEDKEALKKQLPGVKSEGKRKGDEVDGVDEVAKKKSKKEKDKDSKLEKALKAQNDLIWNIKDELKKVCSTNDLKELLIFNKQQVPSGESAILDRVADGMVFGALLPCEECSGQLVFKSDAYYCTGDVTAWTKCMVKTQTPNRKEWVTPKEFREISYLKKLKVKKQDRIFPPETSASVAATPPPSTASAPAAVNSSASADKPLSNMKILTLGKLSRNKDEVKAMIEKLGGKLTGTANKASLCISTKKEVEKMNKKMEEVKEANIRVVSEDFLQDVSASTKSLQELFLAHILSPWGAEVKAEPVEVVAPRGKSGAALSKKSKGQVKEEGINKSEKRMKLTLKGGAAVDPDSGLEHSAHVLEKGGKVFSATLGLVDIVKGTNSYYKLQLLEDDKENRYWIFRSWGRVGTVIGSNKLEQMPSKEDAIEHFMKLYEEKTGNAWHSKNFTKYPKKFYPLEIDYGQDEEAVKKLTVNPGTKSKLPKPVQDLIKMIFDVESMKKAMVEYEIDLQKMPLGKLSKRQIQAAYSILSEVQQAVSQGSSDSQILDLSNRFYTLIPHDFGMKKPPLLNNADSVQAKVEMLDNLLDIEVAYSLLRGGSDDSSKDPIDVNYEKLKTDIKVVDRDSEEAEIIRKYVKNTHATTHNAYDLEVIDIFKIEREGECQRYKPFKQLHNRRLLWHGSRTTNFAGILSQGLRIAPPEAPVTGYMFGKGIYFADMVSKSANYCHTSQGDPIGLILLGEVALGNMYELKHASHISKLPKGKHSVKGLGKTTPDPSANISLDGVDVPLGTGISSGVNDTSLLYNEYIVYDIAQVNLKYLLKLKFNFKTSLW

Q: With `C[C@]1(c2nc3c(C(N)=O)cccc3[nH]2)CCCN1` [Veliparib] as the molecule, how does the “effect of combination with SN-38” value [1] read?
A: Its value is “Additive/synergistic effects”.

Q: What about the EC50 (PAR) of the same molecule?
A: Its EC50 is 0.0059 µM.

Q: And the Estimated tumor range (Estimated tumor range)?
A: Its Estimated tumor range is >2 µM.

Q: And the “effect of combination with SN-38” value [2]?
A: The value was “Additive/synergistic effects”.

Q: What about the “efficacy (tumor growth)” value [3] of the same molecule?
A: Its value is “not efficacious”.

Q: And the “growth inhibition of the cancer cells in combination with SN-38” value [4]?
A: The value was “additive/synergistic growth inhibition”.

Q: And the “potency in the combination with SN-38” value ([4]; compared with olaparib and rucaparib)?
A: The value was “slightly less potent in the combination with SN-38 than olaparib and rucaparib”.

Q: What about the “efficacy (tumor growth)” value [5] of the same molecule?
A: The value was “neither MM-398 or veliparib were efficacious as single agents”.

Q: What about the “Active Range based on XTC008” value (cancer cells) of the same molecule?
A: The value was 1000 to 10000 nM.

Q: And the “activity on SIRT2” value (SIRT2)?
A: Its value is “inactive”.

Q: For `CN(C)Cc1ccc(-c2nc3cccc4c3n2CCNC4=O)cc1` [AG-14361], which Ki (PARP 1) is on record?
A: The Ki was < 0.005 µM.

Q: Which results are given for `O=C(c1cc(Cc2n[nH]c(=O)c3ccccc23)ccc1F)N1CCN(C(=O)C2CC2)CC1` [Olaparib]?
A: effect of combination with SN-38 [1]: Additive/synergistic effects; EC50 (PAR): 0.0036 µM; Estimated tumor range (Estimated tumor range): 8 µM; effect of combination with SN-38 [2]: Additive/synergistic effects; IC50 (HCC1187): 257 µM; IC50 (BT549; BT-549, read-out: IC50 log10 (μM) (converted)): 110 µM; IC50 (SUM149PT; [7]): 251 µM; IC50 (BT20; BT-20, read-out: IC50 log10 (μM) (converted)): 17.4 µM; IC50 (SUM159PT; [7]): 1.51 µM; growth inhibition of the cancer cells in combination with SN-38 [4]: additive/synergistic growth inhibition; sensitivity of cells to combination with SN-38 [6]: very sensitive; less effective against tankyrase-1 than against PARP 1/2 (tankyrase-1): 300 times

Q: For `CNCc1ccc(-c2[nH]c3cc(F)cc4c3c2CCNC4=O)cc1` [Rucaparib], which “effect of combination with SN-38” value [1] is on record?
A: The value was “Additive/synergistic effects”.

Q: What about the EC50 (PAR) of the same molecule?
A: Its EC50 is 0.0047 µM.

Q: What about the Estimated tumor range (Estimated tumor range) of the same molecule?
A: Its Estimated tumor range is <6 µM.

Q: And the “effect of combination with SN-38” value [2]?
A: The value was “Additive/synergistic effects”.

Q: What about the “Maximum Kill Percent” value (HCC1954) of the same molecule?
A: Its value is 100%.

Q: What about the IC50 (HCC1954; [8]) of the same molecule?
A: Its IC50 is 39.8 µM.

Q: And the “Maximum Kill Percent” value (HCC38)?
A: Its value is 87%.

Q: And the IC50 (HCC38; [8])?
A: The IC50 was 0.851 µM.

Q: What about the “Maximum Kill Percent” value (BT549; BT549, Exp. 3, single agent) of the same molecule?
A: The value was 100%.

Q: And the IC50 (BT549; BT-549, BT549, Exp. 3, single agent, read-out: IC50 log10 (converted))?
A: The IC50 was 56.2 µM.

Q: What about the “Maximum Kill Percent” value (SUM149PT; Exp. 3, single agent) of the same molecule?
A: Its value is 99%.

Q: And the IC50 (SUM149PT; Exp. 3, single agent, read-out: IC50 log10 (converted))?
A: The IC50 was 47.9 µM.

Q: And the “Maximum Kill Percent” value (BT20; BT20, Exp. 3, single agent)?
A: The value was 100%.

Q: What about the IC50 (BT20; BT-20, BT20, Exp. 3, single agent, read-out: IC50 log10 (converted)) of the same molecule?
A: Its IC50 is 18.6 µM.

Q: What about the IC50 (SUM159PT; SUM159PT, Exp. 3, single agent, read-out: IC50 log10 (converted)) of the same molecule?
A: Its IC50 is 0.851 µM.

Q: What about the “Maximum Kill Percent” value (SUM159PT; SUM159PT, Exp. 3, single agent) of the same molecule?
A: The value was 97%.

Q: What about the “growth inhibition of the cancer cells in combination with SN-38” value [4] of the same molecule?
A: The value was “additive/synergistic growth inhibition”.

Q: And the “sensitivity of cells to combination with SN-38” value [6]?
A: The value was “very sensitive”.

Q: And the “Active Range based on XTC008” value (cancer cells; (Panc))?
A: Its value is 1 to 100 nM.
